Test results: PubChem BioAssay AID2060626 (Molecular Pharmacology Branch, DTP, NCI, 2025)

system: 168753-222-R-J1-PDC complex spheroid viability; assay: Anticancer human tumor 168753-222-R-J1-PDC patient-derived bladder carcinoma cell line growth inhibition [CLK]; conditions: second compound 3.16 µM; first compound 0.1 µM; hits give low values
Procedure, shortened: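 Multi-cell-type spheroids combined patient-derived tumor cells with HUVEC endothelial cells and human mesenchymal stem cells. Paired agents were dosed in half-log steps down from about clinical Cmax, or from 10 microM where Cmax was unknown.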
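Note: luminescence signal used as surrogate for viable cell amount; viability measured after seven days of drug exposure; 100% = DMSO vehicle control wells.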

**Q.** With `C#Cc1c(F)ccc2cc(O)cc(-c3ncc4c(N5CC6CCC(C5)N6)nc(OCC56CCCN5CC(F)C6)nc4c3F)c12` (stereo unspecified) + CNC(=O)c1ccc(Nc2nc(OC3CCCC3)c3c(-c4ccc5nc(C)oc5c4)c[nH]c3n2)c(OC)c1 as the compound, how does the viability, T/C read?
**A.** 21.7%

**Q.** For `C=C(F)C(=O)N1CCN(c2nc(OCC3CCCN3C)nc3c2CCN(c2cccc4cccc(Cl)c24)C3)CC1CC#N` (stereo unspecified) + CNC(=O)c1ccc(Nc2nc(OC3CCCC3)c3c(-c4ccc5nc(C)oc5c4)c[nH]c3n2)c(OC)c1, which viability, T/C is on record?
**A.** 26.8%

**Q.** How did the viability, T/C turn out when `CC(CO)NC(=O)c1cc(-c2ccc(Cl)cc2)nn(-c2cnn(C)c2)c1=O` (stereo unspecified) + CNC(=O)c1ccc(Nc2nc(OC3CCCC3)c3c(-c4ccc5nc(C)oc5c4)c[nH]c3n2)c(OC)c1 was run?
**A.** 37%

**Q.** With `CC(Nc1ccc2c(c1)OCCn1cc(N3C(=O)OCC3C(F)F)nc1-2)C(N)=O` (stereo unspecified) + CNC(=O)c1ccc(Nc2nc(OC3CCCC3)c3c(-c4ccc5nc(C)oc5c4)c[nH]c3n2)c(OC)c1 as the compound, how does the viability, T/C read?
**A.** 10.1%

**Q.** Which viability, T/C does the source give for `COc1c(OCCCN2CCOCC2)ccc2c3n(c(=NC(=O)c4cnc(N)nc4)nc12)CCN3` + CNC(=O)c1ccc(Nc2nc(OC3CCCC3)c3c(-c4ccc5nc(C)oc5c4)c[nH]c3n2)c(OC)c1 here?
**A.** 0.34%

same assay, conditions: second compound 3.16 µM; first compound 0.316 µM; hits give low values

**Q.** How did the viability, T/C turn out when `C#Cc1c(F)ccc2cc(O)cc(-c3ncc4c(N5CC6CCC(C5)N6)nc(OCC56CCCN5CC(F)C6)nc4c3F)c12` (stereo unspecified) + CNC(=O)c1ccc(Nc2nc(OC3CCCC3)c3c(-c4ccc5nc(C)oc5c4)c[nH]c3n2)c(OC)c1 was run?
**A.** 20%

**Q.** How did the viability, T/C turn out when `C=C(F)C(=O)N1CCN(c2nc(OCC3CCCN3C)nc3c2CCN(c2cccc4cccc(Cl)c24)C3)CC1CC#N` (stereo unspecified) + CNC(=O)c1ccc(Nc2nc(OC3CCCC3)c3c(-c4ccc5nc(C)oc5c4)c[nH]c3n2)c(OC)c1 was run?
**A.** 26.3%

**Q.** With `CC(CO)NC(=O)c1cc(-c2ccc(Cl)cc2)nn(-c2cnn(C)c2)c1=O` (stereo unspecified) + CNC(=O)c1ccc(Nc2nc(OC3CCCC3)c3c(-c4ccc5nc(C)oc5c4)c[nH]c3n2)c(OC)c1 as the compound, how does the viability, T/C read?
**A.** 39.2%

**Q.** How did the viability, T/C turn out when `CC(Nc1ccc2c(c1)OCCn1cc(N3C(=O)OCC3C(F)F)nc1-2)C(N)=O` (stereo unspecified) + CNC(=O)c1ccc(Nc2nc(OC3CCCC3)c3c(-c4ccc5nc(C)oc5c4)c[nH]c3n2)c(OC)c1 was run?
**A.** 3.74%

**Q.** With `COc1c(OCCCN2CCOCC2)ccc2c3n(c(=NC(=O)c4cnc(N)nc4)nc12)CCN3` + CNC(=O)c1ccc(Nc2nc(OC3CCCC3)c3c(-c4ccc5nc(C)oc5c4)c[nH]c3n2)c(OC)c1 as the compound, how does the viability, T/C read?
**A.** 2.13%

same assay, conditions: second compound 3.16 µM; first compound 1 µM; hits give low values

**Q.** Which viability, T/C does the source give for `C#Cc1c(F)ccc2cc(O)cc(-c3ncc4c(N5CC6CCC(C5)N6)nc(OCC56CCCN5CC(F)C6)nc4c3F)c12` (stereo unspecified) + CNC(=O)c1ccc(Nc2nc(OC3CCCC3)c3c(-c4ccc5nc(C)oc5c4)c[nH]c3n2)c(OC)c1 here?
**A.** 17.7%

**Q.** With `C=C(F)C(=O)N1CCN(c2nc(OCC3CCCN3C)nc3c2CCN(c2cccc4cccc(Cl)c24)C3)CC1CC#N` (stereo unspecified) + CNC(=O)c1ccc(Nc2nc(OC3CCCC3)c3c(-c4ccc5nc(C)oc5c4)c[nH]c3n2)c(OC)c1 as the compound, how does the viability, T/C read?
**A.** 17.8%

**Q.** With `CC(CO)NC(=O)c1cc(-c2ccc(Cl)cc2)nn(-c2cnn(C)c2)c1=O` (stereo unspecified) + CNC(=O)c1ccc(Nc2nc(OC3CCCC3)c3c(-c4ccc5nc(C)oc5c4)c[nH]c3n2)c(OC)c1 as the compound, how does the viability, T/C read?
**A.** 28%

**Q.** `CC(Nc1ccc2c(c1)OCCn1cc(N3C(=O)OCC3C(F)F)nc1-2)C(N)=O` (stereo unspecified) + CNC(=O)c1ccc(Nc2nc(OC3CCCC3)c3c(-c4ccc5nc(C)oc5c4)c[nH]c3n2)c(OC)c1 was tested. Which viability, T/C did it give?
**A.** 0.82%

**Q.** `COc1c(OCCCN2CCOCC2)ccc2c3n(c(=NC(=O)c4cnc(N)nc4)nc12)CCN3` + CNC(=O)c1ccc(Nc2nc(OC3CCCC3)c3c(-c4ccc5nc(C)oc5c4)c[nH]c3n2)c(OC)c1 was tested. Which viability, T/C did it give?
**A.** 1.79%

same assay, conditions: second compound 3.16 µM; first compound 3.16 µM; hits give low values

**Q.** `C#Cc1c(F)ccc2cc(O)cc(-c3ncc4c(N5CC6CCC(C5)N6)nc(OCC56CCCN5CC(F)C6)nc4c3F)c12` (stereo unspecified) + CNC(=O)c1ccc(Nc2nc(OC3CCCC3)c3c(-c4ccc5nc(C)oc5c4)c[nH]c3n2)c(OC)c1 was tested. Which viability, T/C did it give?
**A.** 18.4%

**Q.** `C=C(F)C(=O)N1CCN(c2nc(OCC3CCCN3C)nc3c2CCN(c2cccc4cccc(Cl)c24)C3)CC1CC#N` (stereo unspecified) + CNC(=O)c1ccc(Nc2nc(OC3CCCC3)c3c(-c4ccc5nc(C)oc5c4)c[nH]c3n2)c(OC)c1 was tested. Which viability, T/C did it give?
**A.** 18.4%

**Q.** For `CC(CO)NC(=O)c1cc(-c2ccc(Cl)cc2)nn(-c2cnn(C)c2)c1=O` (stereo unspecified) + CNC(=O)c1ccc(Nc2nc(OC3CCCC3)c3c(-c4ccc5nc(C)oc5c4)c[nH]c3n2)c(OC)c1, which viability, T/C is on record?
**A.** 39.4%

**Q.** Which viability, T/C does the source give for `CC(Nc1ccc2c(c1)OCCn1cc(N3C(=O)OCC3C(F)F)nc1-2)C(N)=O` (stereo unspecified) + CNC(=O)c1ccc(Nc2nc(OC3CCCC3)c3c(-c4ccc5nc(C)oc5c4)c[nH]c3n2)c(OC)c1 here?
**A.** 1.82%

same assay, conditions: second compound 3.16 µM; first compound 10 µM; hits give low values

**Q.** How did the viability, T/C turn out when `C#Cc1c(F)ccc2cc(O)cc(-c3ncc4c(N5CC6CCC(C5)N6)nc(OCC56CCCN5CC(F)C6)nc4c3F)c12` (stereo unspecified) + CNC(=O)c1ccc(Nc2nc(OC3CCCC3)c3c(-c4ccc5nc(C)oc5c4)c[nH]c3n2)c(OC)c1 was run?
**A.** 16.2%

**Q.** Which viability, T/C does the source give for `C=C(F)C(=O)N1CCN(c2nc(OCC3CCCN3C)nc3c2CCN(c2cccc4cccc(Cl)c24)C3)CC1CC#N` (stereo unspecified) + CNC(=O)c1ccc(Nc2nc(OC3CCCC3)c3c(-c4ccc5nc(C)oc5c4)c[nH]c3n2)c(OC)c1 here?
**A.** 18.1%

**Q.** `CC(CO)NC(=O)c1cc(-c2ccc(Cl)cc2)nn(-c2cnn(C)c2)c1=O` (stereo unspecified) + CNC(=O)c1ccc(Nc2nc(OC3CCCC3)c3c(-c4ccc5nc(C)oc5c4)c[nH]c3n2)c(OC)c1 was tested. Which viability, T/C did it give?
**A.** 35.2%

**Q.** `CC(Nc1ccc2c(c1)OCCn1cc(N3C(=O)OCC3C(F)F)nc1-2)C(N)=O` (stereo unspecified) + CNC(=O)c1ccc(Nc2nc(OC3CCCC3)c3c(-c4ccc5nc(C)oc5c4)c[nH]c3n2)c(OC)c1 was tested. Which viability, T/C did it give?
**A.** 3.99%

same assay, conditions: second compound 10 µM; first compound 0.00316 µM; hits give low values

**Q.** For `COc1c(OCCCN2CCOCC2)ccc2c3n(c(=NC(=O)c4cnc(N)nc4)nc12)CCN3` + CNC(=O)c1ccc(Nc2nc(OC3CCCC3)c3c(-c4ccc5nc(C)oc5c4)c[nH]c3n2)c(OC)c1, which viability, T/C is on record?
**A.** 12.6%

same assay, conditions: second compound 10 µM; first compound 0.01 µM; hits give low values

**Q.** Which viability, T/C does the source give for `COc1c(OCCCN2CCOCC2)ccc2c3n(c(=NC(=O)c4cnc(N)nc4)nc12)CCN3` + CNC(=O)c1ccc(Nc2nc(OC3CCCC3)c3c(-c4ccc5nc(C)oc5c4)c[nH]c3n2)c(OC)c1 here?
**A.** 10.4%

same assay, conditions: second compound 10 µM; first compound 0.0316 µM; hits give low values

**Q.** `C#Cc1c(F)ccc2cc(O)cc(-c3ncc4c(N5CC6CCC(C5)N6)nc(OCC56CCCN5CC(F)C6)nc4c3F)c12` (stereo unspecified) + CNC(=O)c1ccc(Nc2nc(OC3CCCC3)c3c(-c4ccc5nc(C)oc5c4)c[nH]c3n2)c(OC)c1 was tested. Which viability, T/C did it give?
**A.** 17.1%
